Data on five substances can be found in PMC5989455, “Beta-defensin derived cationic antimicrobial peptides with potent killing activity against gram negative and gram positive bacteria” (BMC Microbiology, 2018).

Bridges are numbered along the chain shown (N, C = ends). Where no end group is shown, it is not given here.

One data set relates to S. aureus (ATCC 29213). It is filed as cell-based, Staphylococcus aureus. Conditions: ATCC 29213, 24 h. As to the method:
(§1) Pseudomonas aeruginosa (P. aeruginosa, ATCC 27853) and Staphylococcus aureus (S. aureus, ATCC 29213) were used to evaluate the novel CAMPs’ antimicrobial activity, salt- and protease-resistance, and membrane permeability. Ten multiple-drug resistant P. aeruginosa and ten methicillin-resistant S. pseudintermedius (MRSP) clinical isolates (Table 2) were used to evaluate the antimicrobial efficacy of CAMPs. The clinical isolates were cultured from diagnostic specimens by the microbiology staff at the University of Missouri Veterinary Medical Diagnostic Laboratory as part of standard service. The isolates were donated to the present project with appropriate permission. All bacterial strains were maintained and grown in Luria-Bertani broth or agar (LB, BD Difco™) at 37 °C as described previously.
(§2) Minimum inhibitory concentrations (MICs) were determined primarily based on the guidelines of the Clinical and Laboratory Standards Institute (CLSI). The Muller Hinton (MH) II broth used in MIC assay contained 20–25 mg/L of calcium and 10–12.5 mg/L of magnesium. The procedures were described in previous studies. In brief, two-fold serially diluted CAMPs (2 to 256 μg/ml) were mixed with appropriate bacterial strains at a final concentration of 5 × 10^5 CFU/ml in a 96-well microtiter plate (Nunc™, Thermo Fisher Scientific). Following incubation at 37 °C for 24 h, MIC was recorded. All assays were conducted in triplicate.

The next data set has as its system mouse red blood cells. In kind it is cell-based. Here is the method:
The hemolytic assay was performed as described previously. Briefly, mouse red blood cells (RBCs, Innovative Research, Novi, MI) were washed three times with phosphate-buffered saline (PBS, pH 7.4), centrifuged at 1000×g for 10 min, and resuspended in PBS to 10% (v/v). The RBCs were treated with CAMPs at various concentrations ranging from 4 to 512 μg/ml (2-fold serial dilutions) at 37 °C for 1 h. PBS and 0.2% Triton X-100 were used as negative and positive controls, respectively. The supernatant was transferred to a 96-well flat-bottomed polystyrene plate (Thermo Fisher Scientific), and the amount of hemoglobin released into the supernatant was determined by measuring the absorbance with a spectrophotometer at 540 nm. Hemolytic activity was expressed as the percentage of hemolysis and calculated using the following equation: hemolysis (%) = (As-A0)/(A100-A0) × 100, where As is the absorbance of the sample, A100 is the absorbance of completely lysed RBCs in 0.2% Triton X-100, and A0 is the absorbance in the complete absence of hemolysis (PBS treatment). The assay was performed in triplicate. The therapeutic index (T.I.) was calculated according to a previously published formula: T.I. = MHC / MICGM [30]. […] The MICGM was the minimum inhibitory concentration of the peptide concentrations against bacterial growth after the geometric mean was calculated. […]

Another data set deals with P. aeruginosa. In kind it is cell-based, Pseudomonas aeruginosa. As to the method: as §1
Minimum inhibitory concentrations (MICs) were determined primarily based on the guidelines of the Clinical and Laboratory Standards Institute (CLSI). The Muller Hinton (MH) II broth used in MIC assay contained 20–25 mg/L of calcium and 10–12.5 mg/L of magnesium. The procedures were described in previous studies. In brief, two-fold serially diluted CAMPs (2 to 256 μg/ml) were mixed with appropriate bacterial strains at a final concentration of 5 × 10^5 CFU/ml in a 96-well microtiter plate (Nunc™, Thermo Fisher Scientific). Following incubation at 37 °C for 24 h, MIC was recorded. […]

The subject of data set [1] is Gram-positive bacteria (S. aureus, S. pseudintermedius). The data set can be described thus: Average MIC for Gram-positive bacteria. Conditions: average over S. aureus ATCC 29213 and 10 MRSP strains (Gram-positive), ± SD. In kind it is cell-based, Staphylococcus spp. Here is the method: as §2
The hemolytic assay was performed as described previously. […] The supernatant was transferred to a 96-well flat-bottomed polystyrene plate (Thermo Fisher Scientific), and the amount of hemoglobin released into the supernatant was determined by measuring the absorbance with a spectrophotometer at 540 nm. Hemolytic activity was expressed as the percentage of hemolysis and calculated using the following equation: hemolysis (%) = (As-A0)/(A100-A0) × 100, where As is the absorbance of the sample, A100 is the absorbance of completely lysed RBCs in 0.2% Triton X-100, and A0 is the absorbance in the complete absence of hemolysis (PBS treatment). […] The therapeutic index (T.I.) was calculated according to a previously published formula: T.I. = MHC / MICGM [30]. […]

In turn, “Ac-RKFLRRRGEVAHFSQKSLGLYCWWW-NH2 [CAMP-t1]” showed an MIC with S. aureus (ATCC 29213) of 64 µg/mL.
In the data set with S. aureus (ATCC 29213), Ac-LRRLKPLIRPWLRPLRRWWW-NH2 [CAMP-A] gave a minimal inhibitory concentration (MIC) of 32 µg/mL. Further, in the data set with mouse red blood cells, the “concentration exhibiting hemolytic and cytotoxic activities” value was no less than 128 µg/mL.
Substance Ac-RRRWRKRRWWW-NH2 [CAMP-B] came in with an MIC against S. aureus (ATCC 29213) of 32 µg/mL.
In turn, “SPIHACRYQRGVCIPGPCRWPYYRVGSCGSGLKSCCVRNRWA (disulfide 6-35, 13-28, 18-36 (inferred)) [AvBD-6, reference compound]” returned an MIC in the data set on P. aeruginosa (24 h) greater than 256 µg/mL. Further, the “MICAverage G-” value against P. aeruginosa (average over 11 P. aeruginosa strains (Gram-negative), ± SD) is greater than 256 µg/mL. For the same substance, in data set [1], the “MICAverage G+” value is no less than 256 µg/mL.
With Ac-PIHRRIPPRWPRLKRRW-NH2 [CAMP-t2], the MIC against S. aureus (ATCC 29213) worked out at 64 µg/mL.
